Source: paper PMC3665789 (PLoS ONE, 2013)
Like-named read-outs stand apart in the source and are kept apart here.

How the values were obtained:
[1] = test system: HIV-1 NPO3 (clinical isolate; X4); details: PBMCs; NPO3, group M subtype E; p24 Ag ELISA
[2] = test system: HIV-1 BCF-06 (clinical isolate; X4); details: PBMCs; BCF-06, group O; p27 Ag ELISA
HIV-1 NL4.3^T20res. (X4) = details: read-out: EC50 (µM ± SEM); MT-4 cells; NL4.3 resistant to enfuvirtide (T20); MTS/PES
CXCR4 = CXCR4 (Homo sapiens, UniProt P61073); assay: Anti-CXCR4 mAb binding on SupT1 cells (flow cytometry); design: endogenous in cells; host or cells: SupT1 T cells (ATCC)
CXCR4, sequence (P61073 whole entry): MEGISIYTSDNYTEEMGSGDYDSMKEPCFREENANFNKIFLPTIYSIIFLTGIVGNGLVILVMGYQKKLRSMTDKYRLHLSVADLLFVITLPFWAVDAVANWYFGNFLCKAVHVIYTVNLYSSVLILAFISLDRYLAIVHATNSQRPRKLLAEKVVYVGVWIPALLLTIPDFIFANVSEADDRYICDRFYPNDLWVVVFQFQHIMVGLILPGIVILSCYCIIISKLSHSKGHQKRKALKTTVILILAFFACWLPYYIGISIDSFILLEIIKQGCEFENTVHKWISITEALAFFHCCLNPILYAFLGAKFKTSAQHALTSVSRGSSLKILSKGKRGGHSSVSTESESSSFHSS
Experimental: To determine the interaction of LabyA1 with CD4, SupT1 cells (100 µl; 3×10^6 cells/ml) were incubated for 20 min at 4°C with 9.6 µM, 1.9 µM or 0 µM LabyA1. After extensive washing with PBS/FCS2% (PBS supplemented with 2% FCS), anti-CD4-PE conjugated mAbs RPA-T4 (eBioscience, Vienna, Austria), MT441 (Ancell, Enzo Life sciences) and OKT-4 (eBioscience) were added for 30 min at 4°C. For aspecific background staining, cells were incubated with SimulTest™ Control (IgGγ1-FITC/IgGγ2a-PE) (BD Biosciences). After washing, and fixation with 1% formaldehyde solution, samples were analyzed using the FACSCalibur and CellQuest software (BD Biosciences). The same protocol was applied for anti-CXCR4 evaluation using the fluorochrome conjugated mAbs 12G5-PE and 2B11-FITC (both BD Biosciences).

[3] = test system: HSV-2 wild-type RV-24 (clinical isolate); details: HEL cells; HSV-2 RV-24; CPE
HIV-1 BaL (R5) = details: read-out: EC50 (µM ± SEM), MDM, p24 Ag ELISA
Experimental: Afterwards, the non-adherent cells were gently mixed and removed from the adherent cell layer. The cells were carefully washed and this washing step was repeated after 6 days of incubation at 37°C. The adherent cells were then infected with HIV-1 R5 BaL.
MDM were seeded in a 48-well plate in 1 ml medium. […] Each concentration was tested in triplicate. After an incubation of 30 minutes at 37°C, 1000 pg/well of p24 Ag of HIV-1 R5 BaL was added. Three weeks post-infection, supernatant was collected and viral replication evaluated by p24 HIV-1 Ag ELISA.

[4] = test system: HSV-1 wild-type KOS (reference strain); details: HEL cells; HSV-1 KOS; reduction of virus-induced CPE by 50%
[5] = test system: HSV-1 wild-type RV-174 (clinical isolate); details: HEL cells; HSV-1 RV-174; CPE
[6] = test system: HIV-1 NL4.3^2G12res. (X4); details: read-out: EC50 (µM ± SEM); MT-4 cells; NL4.3 resistant to mAb 2G12; MTS/PES
[7] = test system: HIV-1 UG273 (clinical isolate; R5); details: PBMCs; UG273, group M subtype A; p24 Ag ELISA
[8] = test system: DC-SIGN-mediated transmission of HIV-1 HE; details: for p24 Ag concentration: without compound 263.9 ng/ml
Experimental: Raji.DC-SIGN^+ cells (200 µl; 2.5×10^6 cells/ml) were exposed to high amounts of HIV-1 HE (100 µl; p24, ∼3×10^6 pg/ml) for 1 h at 37°C. Unbound virus from the Raji.DC-SIGN^+ cells was removed by washing twice with cell culture medium. In the meantime, 100 µl of various concentrations of LabyA1 were added in a 96-well plate and incubated for 1 h with the C8166 target T cells (50 µl; 2×10^6 cells/ml). The same amount of virus exposed Raji.DC-SIGN^+ cells (Raji.DC-SIGN/HE) were mixed with the antiviral drug exposed C8166 target T cells.

## C/C=C1\NC(=O)[C@H](Cc2ccccc2)NC(=O)[C@@H]2CCCN2C(=O)[C@H](C(C)C)NC(=O)[C@H](Cc2c[nH]c3ccccc23)NC(=O)[C@]23CSC[C@H](NC1=O)C(=O)N[C@H](C(=O)O)CSSC[C@H](NC(=O)[C@@H]1CSC[C@]4(C[C@H](N)C(=O)N[C@@H](CC(N)=O)C(=O)N[C@@H](C)C(=O)N4)C(=O)N[C@@H](C(C)C)C(=O)N[C@@H](Cc4c[nH]c5ccccc45)C(=O)N[C@@H](CCC(=O)O)C(=O)N1)C(=O)N[C@@H](C2)C(=O)N[C@@H]([C@@H](C)O)C(=O)NCC(=O)N3 [LabyA1, labyrinthopeptin A1]
[1]
  EC50: 1.6 ± 0.3 µM
[2]
  EC50: 0.83 ± 0.33 µM
HIV-1 NL4.3^T20res. (X4)
  EC50: 2.3 ± 0.3 µM
CXCR4; SupT1 cells, 9.6 µM and 1.9 µM
  inhibition of binding of anti-CXCR4 mAb 12G5: unable to inhibit
CXCR4; data not shown
  binding of anti-CXCR4 mAbs clone 12G5 and 2B11 to CXCR4: did not affect the binding
[3]
  EC50: 0.41 ± 0.28 µM
HIV-1 BaL (R5)
  EC50: 2.4 ± 0.8 µM
[4]
  EC50: 0.56 ± 0.05 µM
[5]
  EC50: 2.7 ± 1 µM
[6]
  EC50: 2.2 ± 0.3 µM
[7]
  EC50: 1.9 ± 0.1 µM
[8]; 9.6 µM
  giant cell formation: fully protected the cells from giant cell formation
  p24 Ag concentration: < 25 pg/mL
[8]; 1.9 and 0.19 µM
  inhibitory effect: not detectable
  p24 Ag concentration: 393700 pg/mL
[8]; read-out: EC50, DC-SIGN-mediated transmission and subsequent replication of HIV-1, Raji.DC-SIGN/HE cocultured with C8166 T cells, 24 h
  EC50: 4.1 µM
